Reference: patent US9273092B2, “Selective binding compounds” (RIOGIN Corporation, priority 2011, dated 2016)

Target: hSA (Homo sapiens, UniProt P02768)
Test: hSA binding assay (hSA-coated microtiter plate, streptavidin-polyHRP/ABTS, OD 405 nm)
Conditions: for Bmax: given only for compounds with an Exp 2 value
Method: hSA binding assay. Microtiter 96 well plate is coated, overnight at 4° C., using […] of a solution of hSA in PBS ([…]). Plate is washed with PBS and blocked, for 1 hours, using 150 ml, per well, of a 10% solution of Tween 20 in water. After 1 hour the wells are washed with PBS. The hSA binders tested are dissolved in PBS, 100 ml of the tested solutions are then added in the well and incubated for 2 hours. After 2 hours, the solution are discarded and the wells are washed using PBS, 0.1% Tween 20. 100 ml of a solution of streptavidin-polyHRP in PBS 1.375% casein is added to the wells and incubated for 1 more hours. Finally wells are washed with PBS, 0.1% Tween 20, and 100 ml ABTS in phosphate-citrate buffer with sodium perborate is added. After a few minutes OD are read at 405 nm.
A plurality of compounds according to the invention were prepared. All of the compounds contained the Cys-Pro-Cys moiety. These compounds and an assay control were tested using the above procedure. Some compounds were tested twice (Exp 1 and Exp 2).

Chain of hSA (P02768 25-609): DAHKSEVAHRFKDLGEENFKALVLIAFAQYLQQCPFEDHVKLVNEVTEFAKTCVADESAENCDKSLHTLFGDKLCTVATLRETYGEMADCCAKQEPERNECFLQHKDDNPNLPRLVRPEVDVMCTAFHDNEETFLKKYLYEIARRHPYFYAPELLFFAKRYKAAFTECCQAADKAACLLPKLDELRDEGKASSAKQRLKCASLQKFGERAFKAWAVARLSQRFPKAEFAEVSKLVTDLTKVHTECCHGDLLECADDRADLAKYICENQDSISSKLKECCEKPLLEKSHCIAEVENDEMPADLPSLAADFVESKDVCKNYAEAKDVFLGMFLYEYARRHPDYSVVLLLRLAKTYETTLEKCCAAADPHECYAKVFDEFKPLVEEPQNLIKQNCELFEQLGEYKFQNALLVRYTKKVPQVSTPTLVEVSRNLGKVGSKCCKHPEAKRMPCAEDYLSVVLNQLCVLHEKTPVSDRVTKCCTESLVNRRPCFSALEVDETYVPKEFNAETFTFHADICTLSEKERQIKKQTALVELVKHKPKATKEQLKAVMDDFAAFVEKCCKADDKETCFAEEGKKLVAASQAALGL

| Sequence | Binding, Exp 1 | Binding, Exp 2 | Bmax |
| --- | --- | --- | --- |
| RLIEDICPCLW [Compound 50, RLIEDI-LW, "-" represents cysteine-proline-cysteine] | 0.2855 | 0.3359 | 1.14 |
| RLIEDICPCQW [Compound 60, RLIEDI-QW, "-" represents cysteine-proline-cysteine] | 1.193 |  |  |
| RLIEDICPCTW [Compound 32, RLIEDI-TW, "-" represents cysteine-proline-cysteine] | 0.1126 |  |  |
| RLIEDICPCVW [Compound 52, RLIEDI-VW, "-" represents cysteine-proline-cysteine] | 0.3108 |  |  |
| RLIEDQCPCLW [Compound 16, RLIEDQ-LW, "-" represents cysteine-proline-cysteine] | 0.06092 |  |  |
| RLIEDTCPCLW [Compound 27, RLIEDT-LW, "-" represents cysteine-proline-cysteine] | 0.08956 |  |  |
| RLIEDVCPCLW [Compound 54, RLIEDV-LW, "-" represents cysteine-proline-cysteine] | 0.3336 |  |  |
| RLIEEICPCLW [Compound 57, RLIEEI-LW, "-" represents cysteine-proline-cysteine] | 0.7026 |  |  |
| RLIENICPCLW [Compound 14, RLIENI-LW, "-" represents cysteine-proline-cysteine] | 0.05331 |  |  |
| RLIESICPCLW [Compound 61, RLIESI-LW, "-" represents cysteine-proline-cysteine] | 1.238 |  |  |
| RLIEVICPCLW [Compound 37, RLIEVI-LW, "-" represents cysteine-proline-cysteine] | 0.1503 |  |  |
| RLIKDICPCLW [Compound 36, RLIKDI-LW, "-" represents cysteine-proline-cysteine] | 0.1404 |  |  |
| RLIQDICPCLW [Compound 18, RLIQDI-LW, "-" represents cysteine-proline-cysteine] | 0.06261 |  |  |
| RLIQICPCLW [Compound 97, RLIQI-LW, "-" represents cysteine-proline-cysteine] |  | 0.1909 | 0.8584 |
| RLISDICPCLW [Compound 98, RLISDI-LW, "-" represents cysteine-proline-cysteine] |  | 0.2247 | 1.301 |
| RLIVDICPCLW [Compound 12, RLIVDI-LW, "-" represents cysteine-proline-cysteine] | 0.04895 | 0.2036 | 1.002 |
| RLTEDICPCLW [Compound 7, RLTEDI-LW, "-" represents cysteine-proline-cysteine] | 0.03902 |  |  |
| RLVEDICPCLW [Compound 20, RLVEDI-LW, "-" represents cysteine-proline-cysteine] | 0.06407 |  |  |
| RQIEDICPCLW [Compound 2, RQIEDI-LW, "-" represents cysteine-proline-cysteine] | 0.02306 | 0.2243 | 1.232 |
| RTIEDICPCLW [Compound 99, RTIEDI-LW, "-" represents cysteine-proline-cysteine] |  | 0.1598 | 0.6151 |
| RVIEDICPCLW [Compound 19, RVIEDI-LW, "-" represents cysteine-proline-cysteine] | 0.06391 | 0.2112 | 1.089 |
